Measurements: article PMC7352292, “Targeting Pharmacokinetic Drug Resistance in Acute Myeloid Leukemia Cells with CDK4/6 Inhibitors” (Cancers, 2020)
Read-outs that look alike come from different tables or passages of the source.

How the values were obtained:
HL-60 ABCG2 cells [1] = assay: Annexin V/PI staining of HL-60 ABCG2 cells; conditions: mitoxantrone alone 1 µM, 4 h
Protocol: The cell suspension was preincubated for 15 min, and then, 1 µM mitoxantrone was added. Mitoxantrone, a dual substrate of ABCB1 and ABCG2, was chosen as resistance victim drug for the experiment because there are no fluorescence spillovers with propidium iodide (PI), which limit the usage of daunorubicin in this setup. The cells were incubated for 4 h at 37 °C and 5% CO2, washed and subsequently resuspended in 1 × annexin binding buffer (ABB, 195 µL) followed by addition of 5 µL of annexin V/fluorescein isothiocyanate (FITC) conjugate. The suspension was incubated in darkness for 10 min. Cells were then washed once in 1 × ABB and resuspended in 400 µL of ABB. Prior to the measurement, 10 µL of PI solution was added and cells were analyzed by BD FACSCanto II flow cytometer using excitation/emission wavelengths 488/530 nm and 488/670 for FITC and PI, respectively.

HL-60 ABCG2 cells [2] = assay: Sub-G1 fraction of HL-60 ABCG2 cells; conditions: mitoxantrone alone 1 µM, 4 h
Protocol: Estimation of fractional DNA content in the late stage of apoptosis was additionally used to clarify the results of annexin V/PI staining. […] The fluorescent substrates daunorubicin (0.2 µM) or mitoxantrone (1 µM) were then added and the suspensions incubated for 4 h at 37 °C and 5% CO2. Afterwards, the cells were resuspended in 2% FBS in PBS and fixed with ice-cold 70% ethanol for at least 30 min at −20 °C. After fixation, the cells were diluted and washed twice with 2% FBS in PBS. Then, 50 µL of RNAse A (100 µg/mL) was applied to ensure that only DNA would be present. Next, 200 µL of PI (50 µg/mL) was added to stain the DNA content of the cells. The samples were incubated for 1 h at 37 °C and 5% CO2. Analysis was performed using a SONY SA3800 spectral cell analyzer. The percentage of cells displaying hypodiploid DNA content is presented as a sub-G1 region of a PI histogram.

HL-60 ABCB1 cells = assay: Sub-G1 fraction of HL-60 ABCB1 cells; assay type: cell-based, human; conditions: 4 h
Protocol: (§1) The fluorescent substrates daunorubicin (0.2 µM) or mitoxantrone (1 µM) were then added and the suspensions incubated for 4 h at 37 °C and 5% CO2. […] The percentage of cells displaying hypodiploid DNA content is presented as a sub-G1 region of a PI histogram.

ABCG2 [3] = target: T1, ABCG2 (Homo sapiens, UniProt Q9UNQ0); assay: Mitoxantrone accumulation in HL-60 ABCG2 cells
T1 sequence (Q9UNQ0 1-655): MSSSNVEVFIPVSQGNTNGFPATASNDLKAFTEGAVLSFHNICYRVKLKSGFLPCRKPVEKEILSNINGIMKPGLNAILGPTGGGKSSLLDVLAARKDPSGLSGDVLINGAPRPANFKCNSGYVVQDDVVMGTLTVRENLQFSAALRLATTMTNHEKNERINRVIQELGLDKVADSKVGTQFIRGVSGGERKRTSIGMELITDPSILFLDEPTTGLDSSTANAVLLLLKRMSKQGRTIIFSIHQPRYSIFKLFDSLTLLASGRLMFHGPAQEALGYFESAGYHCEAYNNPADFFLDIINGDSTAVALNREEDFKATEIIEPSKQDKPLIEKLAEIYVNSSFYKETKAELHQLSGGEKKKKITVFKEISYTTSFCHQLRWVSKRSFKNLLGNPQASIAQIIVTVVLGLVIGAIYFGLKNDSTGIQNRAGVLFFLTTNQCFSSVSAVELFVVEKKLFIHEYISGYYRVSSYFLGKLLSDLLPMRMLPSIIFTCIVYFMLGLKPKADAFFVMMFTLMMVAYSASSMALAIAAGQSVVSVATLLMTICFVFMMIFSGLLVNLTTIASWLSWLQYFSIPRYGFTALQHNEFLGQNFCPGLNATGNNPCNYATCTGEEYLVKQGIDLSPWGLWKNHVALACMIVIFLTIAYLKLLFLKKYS
Protocol: (§3) LY335979 (1 µM) and Ko143 (1 µM) were used as ABCB1 and ABCG2 model inhibitors. After 15 min, daunorubicin (HL-60 and HL-60 ABCB1) or mitoxantrone (HL-60 and HL-60 ABCG2) was added for 1 h at a final concentration of 1 µM (37 °C, 5% CO2). Subsequently, the samples were centrifuged at 150 × g for 5 min, washed in 500 µL ice-cold phosphate buffered saline (PBS), then resuspended again in 500 µL ice-cold PBS and promptly analyzed with a BD FACSCanto II flow cytometer (BD Biosciences, San Jose, CA, USA) using excitation/emission wavelengths 488/670 nm for daunorubicin and 633/660 nm for mitoxantrone.
(§4) The data were statistically analyzed in GraphPad Prism 8.0.1 (GraphPad Software, Inc., San Diego, CA, USA). One-way ANOVA with Dunnett’s post hoc test or Student’s t-test was used for results obtained in vitro, and the nonparametric Mann–Whitney test was used to analyze ex vivo experiments. Half-maximal inhibitory concentrations (IC50) were calculated using sigmoidal Hill kinetics while showing also the corresponding 95% confidence intervals. The correlation between expression and function of ABCB1 and ABCG2 was determined by linear regression. All differences were considered significant at p < 0.05.

ABCG2 [4] = target: T1, ABCG2; conditions: 1 h
Protocol: as §3, §4

AKR1B10 = target: T2, AKR1B10 (Homo sapiens, UniProt O60218); assay: Screening for inhibitory activity on recombinant CRE: AKR1B10; assay type: biochemical; conditions: 50 μM inhibitor concentration; mean ± SD, three experiments
T2 construct: made in house; host or cells: Escherichia coli
T2 sequence (O60218 whole entry): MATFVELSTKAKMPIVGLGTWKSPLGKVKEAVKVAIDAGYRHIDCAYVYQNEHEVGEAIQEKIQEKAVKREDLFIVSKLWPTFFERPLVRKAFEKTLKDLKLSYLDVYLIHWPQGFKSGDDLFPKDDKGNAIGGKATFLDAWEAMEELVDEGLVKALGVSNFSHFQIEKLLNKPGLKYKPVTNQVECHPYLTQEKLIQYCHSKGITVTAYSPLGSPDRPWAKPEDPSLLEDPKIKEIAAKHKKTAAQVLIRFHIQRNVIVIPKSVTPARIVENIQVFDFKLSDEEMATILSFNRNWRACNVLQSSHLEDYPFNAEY
From the text: (§2) Human recombinant carbonyl reducing enzymes CBR1, AKR1A1, AKR1B1, AKR1B10, and AKR1C3 were expressed and isolated by the Escherichia coli expression system as described previously.

PBMC of AML patients [5] = assay: Mitoxantrone accumulation in PBMC of AML patients; assay type: cell-based, human; conditions: 1 µM mitoxantrone, 4 h; for increase of median mitoxantrone accumulation: cmax concentrations, vs untreated control; for effect on median mitoxantrone accumulation: CD34− PBMC, cmax concentrations (0.5 µM abemaciclib, 0.5 µM palbociclib, 7.5 µM ribociclib)
CBR1 = target: T3, CBR1 (Homo sapiens, UniProt P16152); assay: Screening for inhibitory activity on recombinant CRE: CBR1; assay type: biochemical; conditions: 50 μM inhibitor concentration; mean ± SD, three experiments
T3 construct: made in house; host or cells: Escherichia coli
T3 sequence (P16152 1-277): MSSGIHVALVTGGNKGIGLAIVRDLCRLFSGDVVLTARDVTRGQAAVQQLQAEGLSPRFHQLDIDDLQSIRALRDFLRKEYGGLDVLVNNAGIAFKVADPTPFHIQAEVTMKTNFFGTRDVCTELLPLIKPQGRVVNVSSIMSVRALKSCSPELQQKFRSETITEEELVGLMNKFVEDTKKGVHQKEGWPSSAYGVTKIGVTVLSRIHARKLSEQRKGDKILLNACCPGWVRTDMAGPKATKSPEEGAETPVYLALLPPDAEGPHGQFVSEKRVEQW
From the text: as §2

AKR1A1 = target: T4, AKR1A1 (Homo sapiens, UniProt P14550); assay: Screening for inhibitory activity on recombinant CRE: AKR1A1; assay type: biochemical; conditions: 50 μM inhibitor concentration; mean ± SD, three experiments
T4 construct: made in house; host or cells: Escherichia coli
T4 sequence (P14550 1-325): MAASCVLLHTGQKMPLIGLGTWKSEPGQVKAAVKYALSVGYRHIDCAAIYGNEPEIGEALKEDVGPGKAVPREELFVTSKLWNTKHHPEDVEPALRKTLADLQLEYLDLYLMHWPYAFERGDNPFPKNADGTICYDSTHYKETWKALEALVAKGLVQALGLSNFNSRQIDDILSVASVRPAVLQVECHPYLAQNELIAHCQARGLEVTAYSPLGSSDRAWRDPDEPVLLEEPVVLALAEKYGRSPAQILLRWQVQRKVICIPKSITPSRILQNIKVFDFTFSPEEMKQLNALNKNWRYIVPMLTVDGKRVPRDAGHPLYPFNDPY
From the text: as §2

HL-60 cells = assay: Sub-G1 fraction of HL-60 parental/control cells; assay type: cell-based, human; conditions: single drug vs untreated control
Protocol: as §1

AKR1C3 [6] = target: T5, AKR1C3 (Homo sapiens, UniProt P42330); assay: Screening for inhibitory activity on recombinant CRE: AKR1C3; assay type: biochemical; set-up: made in house; host or cells: Escherichia coli; conditions: 50 μM inhibitor concentration; mean ± SD, three experiments
T5 sequence (P42330 1-323): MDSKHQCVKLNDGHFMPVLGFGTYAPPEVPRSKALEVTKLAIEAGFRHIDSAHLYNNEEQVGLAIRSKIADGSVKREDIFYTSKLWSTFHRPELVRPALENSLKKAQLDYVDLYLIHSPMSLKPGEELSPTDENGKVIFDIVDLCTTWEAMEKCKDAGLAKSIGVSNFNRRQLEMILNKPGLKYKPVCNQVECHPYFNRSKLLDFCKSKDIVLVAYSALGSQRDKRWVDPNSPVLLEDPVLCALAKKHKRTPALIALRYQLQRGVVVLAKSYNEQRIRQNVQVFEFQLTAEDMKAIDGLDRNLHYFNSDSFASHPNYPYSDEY
From the text: as §2

ABCB1 = ABCB1 (Homo sapiens, UniProt P08183); assay: Daunorubicin accumulation in HL-60 ABCB1 cells
Sequence of ABCB1 (P08183 whole entry): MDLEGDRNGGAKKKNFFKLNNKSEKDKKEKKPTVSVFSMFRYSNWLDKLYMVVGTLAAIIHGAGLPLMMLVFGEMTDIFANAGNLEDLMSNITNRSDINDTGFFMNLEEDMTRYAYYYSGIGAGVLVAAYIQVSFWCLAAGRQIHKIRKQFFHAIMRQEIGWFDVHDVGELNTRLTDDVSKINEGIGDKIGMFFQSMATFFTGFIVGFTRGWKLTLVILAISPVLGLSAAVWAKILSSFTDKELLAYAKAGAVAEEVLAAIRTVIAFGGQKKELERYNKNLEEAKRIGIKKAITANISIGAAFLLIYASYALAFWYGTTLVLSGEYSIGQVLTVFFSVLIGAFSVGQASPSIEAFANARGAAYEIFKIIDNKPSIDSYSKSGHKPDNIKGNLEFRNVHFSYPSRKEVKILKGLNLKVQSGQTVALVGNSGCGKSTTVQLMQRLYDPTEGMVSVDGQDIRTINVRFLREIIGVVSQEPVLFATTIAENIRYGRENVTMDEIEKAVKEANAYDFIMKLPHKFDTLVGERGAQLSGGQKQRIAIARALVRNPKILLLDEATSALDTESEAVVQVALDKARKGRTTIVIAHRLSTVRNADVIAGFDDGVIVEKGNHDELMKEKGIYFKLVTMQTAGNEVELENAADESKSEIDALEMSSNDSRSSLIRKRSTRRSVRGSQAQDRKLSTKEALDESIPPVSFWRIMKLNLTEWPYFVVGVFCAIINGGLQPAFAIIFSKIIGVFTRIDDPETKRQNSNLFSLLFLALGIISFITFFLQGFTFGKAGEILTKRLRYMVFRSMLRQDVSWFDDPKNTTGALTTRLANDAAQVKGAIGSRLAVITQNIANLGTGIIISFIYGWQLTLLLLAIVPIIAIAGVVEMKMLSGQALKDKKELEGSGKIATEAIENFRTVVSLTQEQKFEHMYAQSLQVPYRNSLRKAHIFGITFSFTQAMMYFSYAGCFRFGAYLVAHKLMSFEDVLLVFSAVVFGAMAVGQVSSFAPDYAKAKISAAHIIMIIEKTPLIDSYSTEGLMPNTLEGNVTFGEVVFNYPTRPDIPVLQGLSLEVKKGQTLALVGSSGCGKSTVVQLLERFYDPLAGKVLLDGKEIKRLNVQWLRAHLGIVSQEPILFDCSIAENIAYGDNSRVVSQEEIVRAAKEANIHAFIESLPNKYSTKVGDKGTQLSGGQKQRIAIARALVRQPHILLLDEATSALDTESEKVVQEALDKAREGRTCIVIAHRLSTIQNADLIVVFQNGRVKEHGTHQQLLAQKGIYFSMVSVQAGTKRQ
Protocol: LY335979 (1 µM) and Ko143 (1 µM) were used as ABCB1 and ABCG2 model inhibitors. After 15 min, daunorubicin (HL-60 and HL-60 ABCB1) or mitoxantrone (HL-60 and HL-60 ABCG2) was added for 1 h at a final concentration of 1 µM (37 °C, 5% CO2).
The data were statistically analyzed in GraphPad Prism 8.0.1 (GraphPad Software, Inc., San Diego, CA, USA). One-way ANOVA with Dunnett’s post hoc test or Student’s t-test was used for results obtained in vitro, and the nonparametric Mann–Whitney test was used to analyze ex vivo experiments. […] The correlation between expression and function of ABCB1 and ABCG2 was determined by linear regression. All differences were considered significant at p < 0.05.

[7] = cited from earlier work
PBMC of AML patients [8] = assay: Apoptosis detection (annexin V/PI) in PBMC of AML patients; assay type: cell-based, human; conditions: vs untreated control, 4 h, cmax concentrations
Protocol: PBMC were isolated from whole blood using Ficoll-Paque PLUS gradient solution (GE Healthcare, Sweden) according to the manufacturer’s instructions. The mononuclear cells thus obtained were washed twice in 6 ml PBS and either transferred to RPMI with 10% FBS and immediately used for experiments or stored frozen in liquid nitrogen. […] The stated concentrations correspond with cmax plasma levels of the respective drugs. […] The cells were then washed in ice-cold PBS and resuspended in 195 µL of 2% FBS in PBS. The anti-human CD34/PE antibody 4H11 (Invitrogen, Carlsbad, CA, USA) was added and incubated on ice for 30 min. This was followed by washing and resuspending in 1 × ABB and staining by annexin V/FITC conjugate as described above. After subsequent staining with PI, the samples were analyzed using the SONY SA3800 spectral cell analyzer.

AKR1B1 = target: T6, AKR1B1 (Homo sapiens, UniProt P15121); assay: Screening for inhibitory activity on recombinant CRE: AKR1B1; assay type: biochemical; conditions: 50 μM inhibitor concentration; mean ± SD, three experiments
T6 construct: made in house; host or cells: Escherichia coli
From the text: as §2

AKR1C3 [9] = target: T5, AKR1C3; assay: Inhibitory assay on HCT116 cells with transient AKR1C3 expression (daunorubicin to daunorubicinol); assay type: cell-based; conditions: HCT116 transfected with AKR1C3, 1 µM daunorubicin, 0.1-10 μM drug, 4 h
Protocol: HCT116 cells were seeded (1.25 × 10^5 cells/well) in 24-well plates and after 24 h in culture transfected with mammalian pCI_AKR1C3 plasmid as described previously. The expression of recombinant AKR1C3 was verified by western blotting using rabbit polyclonal anti-AKR1C3 antibody (ab84327, Abcam, Cambridge, UK). Uniformity of transfection was assumed only when <10% difference was observed between experiments regarding the expression of pCI plasmid containing GFP reporter gene. […] After 4 h incubation (37 °C, 5% CO2), medium was collected, cells were lysed, and resulting samples were handled and analyzed by ultra high-performance liquid chromatography as described previously.

[10] = CDKI (1, 10, 25 µM abemaciclib, palbociclib, ribociclib) + 0.2 µM daunorubicin

O=C1c2c(O)ccc(O)c2C(=O)c2c(NCCNCCO)ccc(NCCNCCO)c21 [mitoxantrone]
annexin V+ population (HL-60 ABCG2 cells [1]): 25.2%
sub-G1 fraction (HL-60 ABCG2 cells [2]): 46.2%

COc1cccc2c1C(=O)c1c(O)c3c(c(O)c1C2=O)C[C@@](O)(C(C)=O)C[C@@H]3O[C@H]1C[C@H](N)[C@H](O)[C@H](C)O1 [daunorubicin]
sub-G1 fraction (HL-60 ABCB1 cells; daunorubicin alone 0.2 µM): 13.1%

CC(=O)c1c(C)c2cnc(Nc3ccc(N4CCNCC4)cn3)nc2n(C2CCCC2)c1=O [Palbociclib, palbociclib]
IC50 (ABCG2 [3]): 45.5 µM
ABCG2 IC50 fold higher than cmax (ABCG2 [4]): approximately 100 fold
fold lower potency toward ABCG2 compared to ABCB1 (ABCG2 [4]): 6.8 fold
inhibition at 50 µM (AKR1B10): 0%
increase of median mitoxantrone accumulation (PBMC of AML patients [5]; CD34+ PBMC): 33.4%
effect on median mitoxantrone accumulation (PBMC of AML patients [5]): did not affect
increase of median mitoxantrone accumulation (PBMC of AML patients [5]; FLT3-ITD− population): 3.58%
inhibition at 50 µM (CBR1): 0%
inhibition at 50 µM (AKR1A1): 0%
proapoptotic effect (sub-G1) as a single drug (HL-60 cells): Neither abemaciclib, palbociclib, nor ribociclib caused a significant proapoptotic effect
inhibition at 50 µM (AKR1C3 [6]): 23.5 ± 6.67%
IC50 (ABCB1): 6.65 µM
Cmax ([7]; read-out: cmax plasma levels, standard dosing, concentration used in PBMC experiments): 500 nM
changes in PBMC apoptosis after single drug exposure (PBMC of AML patients [8]): no significant changes
sub-G1 fraction (HL-60 ABCB1 cells; [10]): 30.7%
inhibition at 50 µM (AKR1B1): 5.54 ± 3.4%
changes in intracellular reduction of daunorubicin to daunorubicinol (AKR1C3 [9]): did not show any changes

CN(C)C(=O)c1cc2cnc(Nc3ccc(N4CCNCC4)cn3)nc2n1C1CCCC1 [Ribociclib, ribociclib]
IC50 (ABCG2 [3]): 26.9 µM
inhibition at 50 µM (AKR1B10): 7.41 ± 1.08%
increase of median mitoxantrone accumulation (PBMC of AML patients [5]; CD34+ PBMC): 60.5%
effect on median mitoxantrone accumulation (PBMC of AML patients [5]): did not affect
increase of median mitoxantrone accumulation (PBMC of AML patients [5]; FLT3-ITD− population): 28.6%
inhibition at 50 µM (CBR1): 0%
inhibition at 50 µM (AKR1A1): 0%
proapoptotic effect (sub-G1) as a single drug (HL-60 cells): Neither abemaciclib, palbociclib, nor ribociclib caused a significant proapoptotic effect
inhibition at 50 µM (AKR1C3 [6]): 36.2 ± 2.83%
Cmax ([7]; human, in vivo): 7500 nM
changes in PBMC apoptosis after single drug exposure (PBMC of AML patients [8]): no significant changes
sub-G1 fraction (HL-60 ABCB1 cells; [10]): 35.6%
inhibition at 50 µM (AKR1B1): 4.58 ± 2.41%
changes in intracellular reduction of daunorubicin to daunorubicinol (AKR1C3 [9]): did not show any changes

CCN1CCN(Cc2ccc(Nc3ncc(F)c(-c4cc(F)c5nc(C)n(C(C)C)c5c4)n3)nc2)CC1 [Abemaciclib, abemaciclib]
IC50 (ABCG2 [3]): 2.98 µM
fold lower potency toward ABCG2 compared to ABCB1 (ABCG2 [4]): 8.4 fold
inhibition at 50 µM (AKR1B10): 2.08 ± 0.4%
increase of median mitoxantrone accumulation (PBMC of AML patients [5]; CD34+ PBMC): 37.4%
effect on median mitoxantrone accumulation (PBMC of AML patients [5]): did not affect
increase of median mitoxantrone accumulation (PBMC of AML patients [5]; FLT3-ITD− population): 16.4%
inhibition at 50 µM (CBR1): 0%
inhibition at 50 µM (AKR1A1): 0%
proapoptotic effect (sub-G1) as a single drug (HL-60 cells): Neither abemaciclib, palbociclib, nor ribociclib caused a significant proapoptotic effect
inhibition at 50 µM (AKR1C3 [6]): 26.3 ± 1.3%
IC50 (ABCB1): 0.354 µM
Cmax ([7]; human, in vivo): 500 nM
changes in PBMC apoptosis after single drug exposure (PBMC of AML patients [8]): no significant changes
sub-G1 fraction (HL-60 ABCB1 cells; [10]): 47.5%
inhibition at 50 µM (AKR1B1): 0%
changes in intracellular reduction of daunorubicin to daunorubicinol (AKR1C3 [9]): did not show any changes
